A melting point compilation (Tetko et al.; mined from patent text by program, amines drawn as free bases though some values may be those of a salt)

Compound | melting point
CC1NC(=O)NN=C1c1ccc(OCC(=O)NCCN2CCN(S(C)(=O)=O)CC2)c(Cl)c1 (configuration not stated) | 236 to 238 °C
CCc1cc2c(=O)n3cc(C#N)ccc3nc2s1 | 223 to 224 °C
CCOC(=O)/C=C/c1cc(-n2cnnc2)cc(C(F)(F)F)c1N | 225 to 227 °C
Cc1cc(Cl)cc(C(=O)Nc2cccc(Cl)c2)n1 | 174 °C
O=[N+]([O-])c1ccc(Oc2cccc3ccccc23)nc1 | 87.3 to 89.3 °C
Cn1ncnc1COc1nn2c(-c3cnccn3)nnc2cc1-c1ccccc1 | 264 °C
O=C(O)COc1cc2ccsc2c(Cl)c1Cl | 166 to 167 °C
CC(=CC(=O)Nc1ccccc1)Oc1ccccc1 | 145 °C
N#Cc1c(N2CCc3ccccc3CC2)nc(CCO)[nH]c1=O | 184 to 188 °C
C=NOCc1ccc(CCc2csc(NC(C)=O)n2)cc1 | 136 to 137 °C
CCCCCCC(=N)NC(=S)Nc1ccc(C)cc1Cl | 78 to 80 °C
Cn1ccnc1C1(CCCCc2ccc(NC(=O)c3ccccc3)cc2)c2ccccc2-c2ccccc21 | 146 to 148 °C
CCOC(=O)c1c(Nc2c(C)cccc2Cl)n[nH]c1C | 158 to 159 °C
CCn1nc(C)c2c1NC(=O)CC2C (configuration not stated) | 141 to 142 °C
COC(=O)CCCc1cc2cc(C(F)(F)F)ccc2[nH]1 | 115 °C
CN(C)C1=Nc2cc(Br)ccc2N2CCc3cccc1c32 | 124 to 127 °C
CCOC(=O)C1(c2ccccc2)CCN(CCO)CC1 | 91.5 to 93 °C
N#Cc1cc(C(F)(F)F)[nH]c1-c1ccc(C=O)o1 | 224 to 225 °C
[N-]=[N+]=NC1CCCC2(CCCC2)NC1=O (configuration not stated) | 96 to 99 °C
COCCOC(=O)C1CCCCC1C(=O)Nc1cc(OC(C)C)c(Cl)cc1F (configuration not stated) | 58 to 60 °C
COc1ccc(C(=O)NCCCCCCCNC(=O)c2ccc(OC)c(OC)c2)cc1OC | 160 to 161 °C
Cc1nn(-c2ccc(C#N)c(Cl)c2)c(C)c1Oc1ccc(NC(=O)C(C)(C)C)cn1 | 191 to 192 °C
CC1NC(=O)NN=C1c1ccc(N)cc1 (configuration not stated) | 248 to 250 °C
CS(=O)(=O)Nc1cccc(Nc2nc(NCC3CCCCN3)c3nc[nH]c3n2)c1 (configuration not stated) | 147 to 150 °C
O=C(NCCc1ccccc1)C1CCc2ccccc2C1 (configuration not stated) | 86 to 87 °C
C/C(=C(\C#N)C(N)=S)N1CCCN(c2ccccc2)CC1 | 151 to 153 °C

Compound | melting point
NC(=O)COC(=O)c1ccc(O)cc1 | 250 to 255 °C
O=C(CO[C@H]1NC(=O)[C@@H]1NC(=O)c1ccccc1)CC(=O)OCc1ccc([N+](=O)[O-])cc1 | 138 to 139 °C
O=C(O)c1cccnc1Oc1cccc(C(F)(F)F)c1 | 149 to 151 °C
COC(=O)CCc1cc2cc(C(F)(F)F)ccc2n1S(=O)(=O)c1cccc2nc(C)sc12 | 106 to 108 °C
CC(=O)c1sccc1CBr | 62 to 64 °C
OC(c1ccc2noc(-c3cccc(Cl)c3)c2c1)c1nc(-c2ccccc2)cs1 (configuration not stated) | 136 °C
COC(=O)Cn1c(C(=O)Nc2nc(-c3cc(OC)c(C)cc3OC)c(CCC3CCCCC3)s2)cc2cc(OC)ccc21 | 173 to 175 °C
COc1nc2c(s1)C(=O)N(C(C)(C)C)C2=O | 63 to 66 °C
CC(O)Cc1cc2c(cc1C(=NNc1ccc(Cl)nn1)c1ccc([N+](=O)[O-])cc1)OCO2 (configuration not stated) | 135 to 137 °C
COc1cc2c(Cl)c(C#N)cnc2cc1OCc1ccccc1 | 282 to 284 °C
Cc1cccc(CNc2nc(NC[C@@H](C)O)nc3c2ncn3C(C)C)c1O | 145 to 147 °C
COc1cccc(-c2ccc3c(c2)C(C)(C)OC(=O)N3)c1 | 164 to 165 °C
N#Cc1cc(S(=O)c2ccccc2)[nH]c1-c1ccc(Cl)cc1 (configuration not stated) | 169 to 170 °C
Cc1ccc(C(=O)c2cc([N+](=O)[O-])ccc2Cl)cc1 | 121 °C
CC(O)(C1=CCN(CCCC(=O)c2ccc(F)cc2)CC1)c1ccc(F)cc1 (configuration not stated) | 95 °C
CC(=O)Oc1ccc(-n2c3c(c(C(C)=O)c2-c2ccccc2)-c2ccccc2CC3)cc1C(=O)O | 223 to 226 °C
CCCCNC(=O)OCCCc1ccc(OCCOC)cc1Oc1ncc(C(F)(F)F)cc1Cl | 91.7 to 91.8 °C
COc1cccc(-c2ncc(C(=O)N(C)Cc3cccc(O)c3)s2)c1F | 140 °C
c1cncc(C2CCCCC2)c1 | 78 to 80 °C
CCOC(=O)NNS(=O)(=O)c1ccc(C)cc1 | 105 to 106 °C
CN(C)C1CC=C(c2c[nH]c3ccc(NC(=N)c4cccs4)cc23)CC1 (configuration not stated) | 113 to 115 °C
O=C(NCCc1ccccc1)Nc1ccc(CN2C(=O)[C@H]3CCC[C@H]3N(C(=O)CN3C(=O)c4ccccc4C3=O)c3ccccc32)cc1 (relative stereo) | 145 to 147 °C
Cn1c(COc2ccc(CC3SC(=O)NC3=O)cc2)nc2ccc(Oc3cccc(NC(=O)NCc4ccc(C(F)(F)F)cc4)c3)cc21 (configuration not stated) | 128 to 132 °C
COP(=O)(Cc1nc2ccccc2nc1CP(=O)(OC)OC)OC | 115 to 116 °C
CCCCCCCCCCCCCCCCCNC(=O)N(C)CC(O)C(O)C(O)C(O)CO (configuration not stated) | 94 to 96 °C
O=C1NC(N2CCCCCC2)=N/C1=C\c1c[nH]c2ncc(F)cc12 | 299 °C

Compound | melting point
CCCC(=O)NC(=O)C1c2ccccc2Oc2ccccc21 | 222 °C
CC(CNc1nc(Cl)ncc1Cl)NS(C)(=O)=O (configuration not stated) | 160 °C
Cc1cccc(Cl)c1NC(=O)Nc1cc(N[C@H]2CC[C@H](O[Si](C)(C)C(C)(C)C)CC2)ncn1 | 218 to 220 °C
CC1(C)[C@H](c2nc(-c3ccc(F)cc3)no2)CC[C@]1(C)NCC(=O)N1C[C@@H](F)C[C@H]1C#N | 160 to 163 °C
COn1cc(C(=O)O)c(=O)c2c3sc(=O)n(C)c3ccc21 | > 300 °C
CCCCCCCCC(SCCCCCC)C(=O)Nc1c(SC)cc(C)nc1SC (configuration not stated) | 75 to 76.5 °C
CCCCOc1c(CNC(=O)OC(C)(C)C)n(CC(C)C)c(=O)c2ccc(-n3ccnn3)cc12 | 190 to 191 °C
COC(c1cc(-c2ccc(F)cc2)c(-c2ccc(F)cc2)n1C)(C(F)(F)F)C(F)(F)F | 108 to 110 °C
CC(C)(C)c1nc(-c2nn(-c3ccc(F)cc3F)c3c2C2CCC3C2)no1 (configuration not stated) | 119 to 121 °C
CCCCCCCCCCCCCC=Cc1cc(C(=O)O)c[nH]1 | 90 to 96 °C
Cc1ccc(NC(=O)c2cc(Cl)ccc2NCC2CCN(C(C)C)CC2)nc1 | 147 to 148 °C
O=C(O)C(F)Oc1ccc(Cl)cc1Cl (configuration not stated) | 89 to 91 °C
CC(O)c1ccc2occ(C#N)c(=O)c2c1 (configuration not stated) | 147 to 148 °C
COc1cc(CSC(=S)N(C)C)nc(N)n1 | 118 to 120 °C
O=C1NC(=O)C(CCOc2ccc(F)cc2)S1 (configuration not stated) | 94 to 96 °C
Cc1nn(-c2ccc(Cl)nn2)c(C)c1N | 165 to 168 °C
CCCCCCCCCCCCCCCCCC(=O)Oc1ccccc1C(=O)OCC | 50.5 to 53.5 °C
N#Cc1nn(-c2c(Cl)cc(C(F)(F)F)cc2Cl)c(CO)c1SC(F)(F)F | 118 °C
CCOC(=O)CC(=O)c1c(F)c(F)c(N2CCC(NC(C)=O)C2)c(F)c1F (configuration not stated) | 90 to 92 °C
COC(=O)c1cnc(N2CCN(CC3CC3)C2=O)s1 | 124 to 126 °C
N#Cc1ccc(-c2cc3c(O)ncnc3[nH]2)cc1 | > 410 °C
OC1(F)CC(c2ccccc2)=Nc2ccccc21 (configuration not stated) | 298 to 302 °C
COc1ccc(-n2c(=O)n(OCc3ccccc3)c(=O)c3cc(F)c(Cl)nc32)cc1 | 238 to 240 °C
Nc1nccc2oc(I)cc12 | 170 to 173 °C
CC(=O)C(=[N+]=[N-])C(=O)CCc1ccccc1 | 30 to 32 °C
CCOC(=O)C(C)(C)Oc1ccc(C(=O)Nc2ccccc2Sc2ccccc2-c2nnn[nH]2)cc1 | 157 to 158 °C

Compound | melting point
COCc1nc2c(N)nc3ccccc3c2s1 | 183 to 185 °C
Clc1cc(N2CCNCC2)nc(N2CCCC2)n1 | 89 to 100 °C
NC(=O)c1ccc2[nH]cc(CCN3C(=O)c4ccccc4C3=O)c2c1 | 254 to 256 °C
O=S1(=O)CCON=C1c1nc2ccccc2s1 | 226 to 227 °C
CCCC(=O)c1cnc2c(C(=O)O)cccc2c1Nc1ccccc1C | 179 to 180 °C
CCS(=O)(=O)N[C@H](C(=O)NCc1ccc(O)c(OC)c1)C(C)C | 49 to 50 °C
O=C(NCC1CC1)NCC1CC1 | 127 to 130 °C
COc1nnc(-c2ccccc2)c(=O)n1N | 165 °C
Clc1ccc(C(Br)C(Br)c2ncon2)cc1 (configuration not stated) | 141 to 142 °C
Cc1ccc(Oc2ccc(C(F)(F)F)cc2Cl)cc1C(=O)O | 113 °C
CC(C)(C)OC(=O)N1CCC(N2C(=O)OCc3ccccc32)CC1 | 143 to 145 °C
COc1ccc(-c2ncn(-c3cc(OC)c(OC)c(OC)c3)c2-c2cc(OC)c(OC)c(OC)c2)cc1OC | 160 to 161 °C
O=C1c2ccc(N=CN3CCCCC3)cc2C(=O)c2ccc(N=CN3CCCCC3)cc21 | 229 to 233 °C
CNc1cc(Oc2ccc(NC(=O)Nc3ccc(-c4cccc(C)n4)c(C(F)(F)F)c3)cc2)ncn1 | 106 to 109 °C
N#CC(C(=O)Nc1ccccc1)C(=O)c1nn(-c2ccccc2)c2c1Cc1ccc(Cl)cc1-2 (configuration not stated) | 259 to 263 °C
COC(=O)COc1ccc(NC(=O)c2cc(C(C)C)c(C(C)C)o2)cc1 | 104 to 105 °C
CSc1ccc(NC(=N)c2ccc(F)cc2)cc1 | 121 to 124 °C
COc1cc2c(cc1O)CCCC(=O)N2Cc1cc(OC)c(OC)c(OC)c1 | 170 to 171 °C
Brc1cccc(C2Cc3cnc(Nc4ccc(CCNCCN5CCCC5)cc4)nc3-c3ccccc32)c1 (configuration not stated) | 83 to 85 °C
O=C(N[C@H](Cc1ccccc1)C(=O)O)OCc1cc2cc(-c3ccccc3)ccc2o1 | 154 to 156 °C
CCOC(=O)c1cn(-c2cc(N)c(F)cn2)c2c(Cl)c(F)c(F)cc2c1=O | 140 to 148 °C
O=C(C(=O)C12CC3CC(CC(C3)C1)C2)c1ccc(OC(F)F)cc1 | 118 to 120 °C
CCCCCCN1C(=O)c2cscc2Nc2ccccc21 | 100 to 102 °C
N#Cc1ccc(OCc2ccsc2)cc1OC(C(=O)O)c1ccccc1C(F)(F)F (racemic) | 38 to 40 °C
